Legend:
hCD1d C1R cells = experiment: Tetrameric human iNKT‐cell TCR staining of lipid‐loaded hCD1d C1R cells (flow cytometry); assay type: cell-based; conditions: compared with α‐GalCer; overnight incubation
Experimental: Two analogs of ThrCer, ThrCer 6, and ThrCer 7 were synthesized. […] We first carried out measurements to assess the binding affinity of these ThrCer analogs to human iNKT‐cell TCR (Fig. 1B). Recombinant human CD1d (hCD1d) molecules were refolded in vitro with ThrCer 6 and ThrCer 7 separately and coupled to BIAcore chips, over which refolded human iNKT‐cell TCR was injected at different concentrations 34. […]
Figure 1 ThrCer 6 and ThrCer 7 are potent human iNKT‐cell agonists and display a prolonged interaction with the iNKT‐cell TCR when in complex with human CD1d molecules. […] (B) Equilibrium binding and kinetics measurements of a soluble human iNKT‐cell TCR were assessed for hCD1d molecules refolded with α‐GalCer, ThrCer, ThrCer 6, and ThrCer 7. K d values (μM) were calculated from equilibrium binding. […] After incubating overnight, the degree of iNKT‐cell recognition, assessed either (C) by using a tetrameric human iNKT‐cell TCR by flow cytometry or (D) by the addition of human iNKT cells to cultures and determining the amount of IFN‐γ released in supernatant by ELISA. (E) Human DC maturation was assessed following coculture with human iNKT cells and l μg lipids after 40 h, as determined by CD86 upregulation on DC by flow cytometry. […]

human iNKT cells = experiment: Human iNKT‐cell activation by lipid‐pulsed hCD1d C1R cells, IFN‐γ ELISA; assay type: cell-based; conditions: compared with α‐GalCer; particularly below 1 ng/mL
Experimental: To this end, hCD1d‐expressing C1R cells were loaded overnight with serial dilutions of lipids (α‐GalCer, ThrCer, ThrCer 6, and ThrCer 7) and then incubated with human iNKT cells. iNKT‐cell activation was assessed by measuring IFN‐γ production in the supernatant by ELISA.
Concentrations of murine IFN‐γ and IL‐4 in serum were determined using standard sandwich ELISAs using the R4‐6A2 capture Ab for IFN‐γ (eBioscience), and the ID11 capture Ab for IL‐4 (Endogen). Biotinylated XMG1.2 (eBioscience) was used as the detection Ab for IFN‐γ and biotinylated BVD6‐24G2 (eBioscience) was used as the detection Ab for IL‐4. Human IFN‐γ in supernatants was determined using the capture Ab NIB42 (BD Pharmingen) and biotinylated 4S.B3 (BD Pharmingen) as the detection Ab.
Human iNKT‐cells were expanded as described previously 34. […] The presence of IFN‐γ was detected in supernatants by ELISA 12. […] DC maturation was determined by the upregulation of CD86 by flow cytometry on a FACSCalibur with CellQuest software (BD) and analyzed with FlowJo software (Tree Star). For in vivo murine APC phenotype analysis the expression of CD86 or CD40 on CD11c^+ APCs from spleen were determined after 18 h post i.v. of 1 μg lipids on a CyAn cytometer and analyzed with FlowJo software (Tree Star).

human DC = experiment: Human DC maturation (CD86 upregulation) in coculture with human iNKT cells and lipids; assay type: cell-based; conditions: compared to ThrCer; comparable to α‐GalCer; 40 h
Experimental: Figure 1 ThrCer 6 and ThrCer 7 are potent human iNKT‐cell agonists and display a prolonged interaction with the iNKT‐cell TCR when in complex with human CD1d molecules. (A) The structures of α‐GalCer and non‐glycosidic analogs ThrCer, ThrCer 6, and ThrCer 7 are shown. (B) Equilibrium binding and kinetics measurements of a soluble human iNKT‐cell TCR were assessed for hCD1d molecules refolded with α‐GalCer, ThrCer, ThrCer 6, and ThrCer 7. K d values (μM) were calculated from equilibrium binding. (C and D) iNKT‐cell agonists were added to human CD1d C1R cells at various concentrations. After incubating overnight, the degree of iNKT‐cell recognition, assessed either (C) by using a tetrameric human iNKT‐cell TCR by flow cytometry or (D) by the addition of human iNKT cells to cultures and determining the amount of IFN‐γ released in supernatant by ELISA. (E) Human DC maturation was assessed following coculture with human iNKT cells and l μg lipids after 40 h, as determined by CD86 upregulation on DC by flow cytometry. Median fluorescent intensity = MFI. (D and E) Error bars are mean ± SEM (triplicate wells). […]
To this end, hCD1d‐expressing C1R cells were loaded overnight with serial dilutions of lipids (α‐GalCer, ThrCer, ThrCer 6, and ThrCer 7) and then incubated with human iNKT cells. iNKT‐cell activation was assessed by measuring IFN‐γ production in the supernatant by ELISA. […]

iNKT hybridoma DN32.D3 = experiment: CD11c+ splenocytes from lipid‐injected Jα18 knockout mice stimulating DN32.D3 (IL‐2 ELISA); assay type: in vivo; conditions: 1 μg i.v.; for Decline in stimulation of DN32.D3 by CD11c+ cells, 64 h compared with 12 h post injection: Jα18 knockout mice, IL‐2
Experimental: Figure 6 Enhanced bioavailability of ThrCer 6 as compared to ThrCer and α‐GalCer. (A) Mouse BMDCs were pulsed for 6 h with 100, 10, or 1 ng/mL of indicated iNKT‐cell agonists. Cells were washed and suspended in tissue culture medium in the absence of iNKT‐cell agonists for up to 24 h. Washed BMDCs were then cocultured with the murine iNKT cell hybridoma DN32.D3. Hundred percentage activation was defined for each iNKT‐cell agonist as the IL‐2 produced by DN32.D3 cocultured with BMDCs that were left with iNKT‐cell agonists throughout the pre coculture period (30 h). Diminished bioavailability is expressed as a percentage of the maximum DN32.D3 activation by each iNKT‐cell agonist. Number of replicates = 4. (B and C) Jα18 knockout mice were injected i.v. with 1 μg of ThrCer 6, α‐GalCer, or vehicle. Twelve hours or 64 h later, CD11c^+‐purified cells were cocultured with 5 × 10^4 DN32.D3 at different ratios. (B) IL‐2 in the supernatant from coculture of DN32.D3 with CD11c^+ cells isolated after 64 h was determined by ELISA. (C) IL‐2 levels of the same culture as percentage of the IL‐2 produced by DN32.D3 coincubated with CD11c^+ cells isolated 12 h after injection of lipids. […] Significance was calculated between α‐GalCer and ThrCer 6. *p < 0.05, **p < 0.01, ***p < 0.001, ****p < 0.0001; Student's t‐test.
To rule out the possibility that the results of these experiments could be modulated by the in vivo killing of CD11c^+ cells by iNKT cells, Jα18 knockout mice, lacking iNKT cells, were injected with ThrCer 6, α‐GalCer or vehicle, and then culled 12 or 64 h later. CD11c^+ cells enriched from the spleens were then coincubated with DN32.D3 for 17 h and IL‐2 production was measured in the supernatant (Fig. 6B and C).
Levels of iNKT‐cell agonists, presented by CD1d on the surface of cells, were assessed by the amount of IL‐2 secreted by iNKT hybridoma DN32.D3 coincubated with the presenting cells for 17–24 h. […] Levels of IL‐2 in the supernatant were determined by ELISA. iNKT‐cell hybridoma DN32.D3 was kindly provided by A. Bendelac 45.

Structure (SMILES) | Staining of lipid‐loaded hCD1d C1R cells by tetrameric human iNKT‐cell TCR (hCD1d C1R cells) | Activation of human iNKT cells (IFN‐γ in supernatant) (human iNKT cells) | Human DC maturation (CD86 upregulation) (human DC) | Decline in stimulation of DN32.D3 by CD11c+ cells, 64 h compared with 12 h post injection (iNKT hybridoma DN32.D3) | Activation of DN32.D3 by splenic CD11c+ cells 64 h after in vivo injection (iNKT hybridoma DN32.D3; compared with α‐GalCer‐injected mice)
CCCCCCCCCCCCCCCCCCCCCCCCCC(=O)N[C@@H](CO[C@H]1CC[C@H](O)[C@H](O)[C@H]1O)[C@H](O)[C@H](O)CCCCCCCCCCCCCC [ThrCer 6] | enhanced staining | greater activation of human iNKT cells | improved ability | less than 50% | more potent activators of DN32.D3 cells
CCCCCCCCCCCCCCCCCCCCCCCCCC(=O)NC(COC1CCCC(O)C(O)C1O)C(O)C(O)CCCCCCCCCCCCCC (stereo not drawn) [ThrCer 7] | enhanced staining | greater activation of human iNKT cells | improved ability | – | –
CCCCCCCCCCCCCCCCCCCCCCCCCC(=O)N[C@@H](CO[C@H]1O[C@H](CO)[C@H](O)[C@H](O)[C@H]1O)[C@H](O)[C@H](O)CCCCCCCCCCCCCC [α‐GalCer, α‐galactosylceramide, reference compound] | – | – | – | more than 90% | –
